According to patent US12414968B2, “Compositions comprising bacterially derived minicells and methods of using the same” (EnGeneIC Molecular Delivery Pty Ltd, priority 2018, dated 2025):
Like-named read-outs stand apart in the source and are kept apart here.

Assays:
[1] = test system: human lung cancer cell line A549; experiment: MTS cell proliferation assay, A549; format: cell-based; details: 72 hrs
[2] = test system: human breast cancer cell line MDA-MB-468; experiment: MTS cell proliferation assay, MDA-MB-468; format: cell-based; details: 72 hrs
[3] = test system: human colorectal cancer cell lines Caco-2 and HCT116; experiment: MTS cell proliferation assay, Caco-2 and HCT116; format: cell-based; details: 72 hrs
[4] = test system: Glioblastoma cell line U87-MG; experiment: MTS cell proliferation assay, U87-MG; format: cell-based; details: 72 hrs
[5] = test system: MiaPaca-2 cells; experiment: MTS cell proliferation assay, MiaPaca-2; format: cell-based, human; details: 72 hrs
[6] = test system: MiaPaca-2 GemR cells; experiment: MTS cell proliferation assay, MiaPaca-2 GemR; format: cell-based, human; details: 72 hrs
[7] = test system: RAW264.7 cells; experiment: RAW264.7 cells incubated directly with EDVs; format: cell-based, mouse; details: direct incubation
Excerpt: Results: M1 macrophage polarization and dendritic cell maturation in response to EDV Treatment: Due to the fact that the EDV is derived from Salmonella Typhimurium bacteria, the outer EDV membrane contains a substantial lipopolysaccharide (LPS) content (MacDiarmid et al., 2007b). The interaction of high doses of LPS with macrophages is well known to result in macrophage activation and M1 polarization. To determine if the EDV was capable of eliciting a similar phenotypic response, RAW264.7 cells were incubated with Ep-EDV-682 and Ep-EDV and examined for changes in macrophage phenotype and cytokine production. Expression of the co-stimulatory CD86 expression is known to be a phenotypic indicator of macrophage polarization as well as a hallmark of the antitumor M1 tumor associated macrophages (TAMs) (Dong et al., 2016).
Treatment of RAW264.7 cells with EDVs: RAW264.7 cells were seeded in 6-well plates at 3×10^5 cells per well and incubated overnight. […] Cells were harvested 6h and 24h post treatment using a cell scraper and samples were stained with DAPI (Sigma), anti-CD45 Brilliant Violet 510 (BioLegend), anti-CD86 APC-Cy7 (BioLegend), and anti-CD206 AF488 (R&D Systems) and assessed by flow cytometry.

[8] = test system: RAW264.7 cells co-cultured with treated 4T1 and CT26Ep12.1 cells; experiment: RAW264.7 / treated tumor cell co-culture; format: cell-based, mouse; details: then co-culture
Protocol: Macrophage and DC/Tumor Cell Co-cultures: CT26Ep12.1 and 4T1 cells were harvested with Versene (Gibco) and cells were collected in 1 mL Eppendorf tubes. Cells were resuspended in 1 mL DMEM (Sigma) supplemented with 10% FBS (Bovogen) containing: Ep-EDV (1000:1 and 5000:1—EDV:cells); Ep-EDV-682 (500:1 and 1000:1—EDV:cells); Ep-EDV-Dox (10,000:1—EDV:cell), 100 pmol PNU-159682, 5 μM Doxorubicin, or media alone. […] Cells were then washed thoroughly with PBS to remove any non-adherent EDV or excess drug. Treated tumor cells were cultured overnight with either RAW264.7 or BMDC at a 1:1 ratio of tumor cells:RAW264.7/BMDC/JAWS II. Supernatants were collected for ELISA analysis. RAW264.7/tumor cell co-cultures were collected using a cell scraper and samples were stained with DAPI (Sigma), anti-CD45 Brilliant Violet 510 (BioLegend), anti-CD86 APC-Cy7, and anti-CD206 AF488 and assessed by flow cytometry. JAWS II/tumor cell and BMDC/tumor cell co-cultures were collected with versene and stained with DAPI (Sigma), CD11b AF488 (Abcam), CD11c PE (Molecular Probes), anti-CD45 Brilliant Violet 510 or PECy5 (BioLegend), anti-CD86 APC-Cy7, MHC Class II PECy5 (Thermo Fisher), MHC Class II Brilliant Violet 421 (BioLegend), 7-AAD (BioLegend), and/or CD80 PE (Thermo Fisher) and assessed by flow cytometry. […] RNA concentration was determined on an Eppendorf biophotometer plus. […]

[9] = test system: bone marrow derived dendritic cells (BMDC) with 4T1 cells; experiment: BMDC / treated 4T1 co-culture; format: cell-based, mouse
Protocol: (§1) The effect of tumor cell death in response to Ep-EDV, Ep-EDV-682, and 682 treatment on dendritic cell maturation was also examined (FIGS. 27E-27I). Bone marrow derived dendritic cells (BMDC) were co-incubated with treated tumor cells (4T1 and CT26Ep12.1) for 48 h, followed by assessment of the production of the type 1 interferons IFNα and IFNβ. Increases in type 1 interferon production by dendritic cells is well established as a mechanism of dendritic cell maturation and enhanced antigen presentation as well as being vital for their interaction with other immune cell subsets including NK cells and T-cells (Fitzgerald-Bocarsly and Feng, 2007; Simmons et al., 2012).
(§2) Bone Marrow Derived DCs (BMDC): Bone marrow was isolated from the femurs and tibias of Balb/c mice. […]
(§3) Macrophage and DC/Tumor Cell Co-cultures: CT26Ep12.1 and 4T1 cells were harvested with Versene (Gibco) and cells were collected in 1 mL Eppendorf tubes. […] RAW264.7/tumor cell co-cultures were collected using a cell scraper and samples were stained with DAPI (Sigma), anti-CD45 Brilliant Violet 510 (BioLegend), anti-CD86 APC-Cy7, and anti-CD206 AF488 and assessed by flow cytometry. […] RNA concentration was determined on an Eppendorf biophotometer plus. […] Data was exported to excel and the relative quantitation was calculated from the ΔΔCt.

[10] = test system: bone marrow derived dendritic cells (BMDC) with CT26Ep12.1 cells; experiment: BMDC / treated CT26Ep12.1 co-culture; format: cell-based, mouse
Protocol: as §1, §2, §3

[11] = test system: patient derived pancreatic ductal adenocarcinoma cells (head and tail); experiment: Drug sensitivity of patient derived PDAC cells; format: cell-based, human
Protocol: PDAC cells obtained from resected tumor tissue from both the head and tail of the pancreas were examined for drug sensitivity.
The dosed was administered over 20 min via a 20 ml niki pump and premedications were given prior to dosing as before (van Zandwijk et al., 2017). Serum biochemistry, haematology and cytokine expression was evaluated pre and 3 hours post each dose. CA19-9 and C-reactive protein levels were monitored at least bi-weekly. Peripheral Blood mononuclear cells (PBMCs) were examined by flow cytometry prior to dosing and at the end of the cycle for changes in anti-tumour immune cell numbers. Tumour tissue was obtained from the original surgical resection and PDAC cells were cultured and tested for drug sensitivity and surface receptors expression.

[12] = test system: drug-resistant cancer cells; details: Quintieri et al., 2005; cited from earlier work
[13] = test system: Adreno-cortical cancer cell lines ACC01 and ACC07; experiment: MTS cell proliferation assay, ACC01 and ACC07; details: 72 hrs, lines derived from Stage IV patients
Protocol: All cells were incubated for a further 72 hrs followed by the colorimetric MTS cell proliferation assay (Cory et al., Cancer Commun., 3(7): 207-12 (1991)) using the CellTiter 96 AQueous One Solution Cell Proliferation Assay (Promega Corp., Madison, Wis., USA), according to the manufacturer's instructions. The colorimetric measurements were read at 490 nm.

[14] = test system: JAWSII cells; experiment: αGC-CD1d surface presentation on JAWSII cells (flow cytometry); format: cell-based, mouse; details: 8h to 48h post-treatment; vs minicells alone and untreated
Protocol: Treatment of JAWSII spheroids with EDVαGC: JAWSII cells were treated with 1000 ng/ml αGC (positive control); empty minicells and minicellsαGC compared to untreated cells and collected at 8h, 16h, 24h and 48h post-treatment (FIG. 46A-46D).
Initial treatment preparation: 6 hanging drop suspension samples were used for each treatment group per time point. 5×10^4 JAWSII cells and 5×10^8 minicells ([…]) were used for each treatment sample and cultured in JAWSII cell culture media in a total volume of 50 μl. Extra untreated samples were prepared for isotype controls. The appropriate amount of minicells were pelleted by centrifugation at 12,000 g for 7 min and the supernatant was carefully removed by pipetting. Appropriate amount of live JAWS cells (based on the cell count from the previous section) were added to the pelleted minicells. The minicells were then dissociated into single-minicells-cell suspensions by gentle pipetting. The final volume of each sample was then made up by the addition of sterile culture media. […]
Staining the treated JAWSII cells with anti-alpha GalCer:mCD1d complex monoclonal antibody: The entire content of each hanging drop well was carefully collected using a P200 pipette and transferred into an Eppendorf tube. […] The samples were then analyzed using a Gallios flow cytometer.

Structure (SMILES): COc1cccc2c1C(=O)c1c(O)c3c(c(O)c1C2=O)C[C@@](O)(C(=O)CO)C[C@@H]3OC1CC2C(OC3C(OC)OCCN23)C(C)O1 (stereo partly drawn) [PNU-159682, 3′-deamino-3″,4′-anhydro-[2″(S)-methoxy-3″(R)-oxy-4″-morpholinyl] doxorubicin]
- cytotoxicity [1]: greater cytotoxicity
- inhibition of proliferation / resistance of the cell line [2]: inhibited proliferation
- inhibition of proliferation / resistance of the cell lines [3]: inhibited proliferation
- inhibition of proliferation / resistance of the cell line [4]: could inhibit proliferation
- inhibition of proliferation / resistance of the cells [5]: could inhibit proliferation
- inhibition of proliferation / resistance of the cells [6]: could inhibit proliferation
- CD86 expression [7]: did not induce the same response
- CD86 expression on RAW264.7 cells [8]: unable to produce any significant change
- production of TNF-α and IL-6 (Th1 cytokines) [8]: no increase
- type 1 interferon mRNA production [9]: unable to elicit increases
- type 1 interferon mRNA production [10]: unable to elicit increases
- drug sensitivity [11]: sensitive
- IC50 ([11]; head and tail PDAC cells): pM range
- drug sensitivity ([11]; listed as 682): extreme sensitivity
- IC50s for even drug-resistant cancer cells [12]: pM range
- cytotoxic effect / resistance of the cell lines [13]: potent cytotoxic effects

Structure (SMILES): CCCCCCCCCCCCCCCCCCCCCCCCCC(=O)N[C@@H](CO[C@H]1O[C@H](CO)[C@H](O)[C@H](O)[C@H]1O)[C@H](O)[C@H](O)CCCCCCCCCCCCCC [free α-GC, α-galactosylceramide]
- anti-GalCer:mCD1d staining (αGC surface presentation) [14]: clear shift
